From patent US6943191B1, “Disubstituted lavendustin A analogs and pharmaceutical composition comprising the analogs” (The United States of America as represented by the …, priority 1998, dated 2005)
Where two headings read alike, the source gives them in different places.

Legend:
p210^bcr-abl = molecular target: T1, p210^bcr-abl (Homo sapiens, UniProt P00519); assay: Inhibition of in vitro auto-phosphorylation of p210^bcr-abl, immune-complex kinase assay; type: biochemical; settings: immune complex kinase assay, 3 experiments, read-out: Enzyme Assays IC50 (μM) p210bcl-abl in vitro phosphorylation
T1 construct: immune complexes containing ^32P-labeled p210^bcr-abl were collected on protein Sepharose beads; BCR (N-terminal part of the breakpoint cluster region protein, natural fusion partner); endogenous in cells; host or cells: K562 cells (lysate, immunoprecipitated on Protein A-Sepharose); the other entry of the earlier key: BCR (P11274, Breakpoint cluster region protein)
T1 sequence (P00519 with tags, fused parts or gaps): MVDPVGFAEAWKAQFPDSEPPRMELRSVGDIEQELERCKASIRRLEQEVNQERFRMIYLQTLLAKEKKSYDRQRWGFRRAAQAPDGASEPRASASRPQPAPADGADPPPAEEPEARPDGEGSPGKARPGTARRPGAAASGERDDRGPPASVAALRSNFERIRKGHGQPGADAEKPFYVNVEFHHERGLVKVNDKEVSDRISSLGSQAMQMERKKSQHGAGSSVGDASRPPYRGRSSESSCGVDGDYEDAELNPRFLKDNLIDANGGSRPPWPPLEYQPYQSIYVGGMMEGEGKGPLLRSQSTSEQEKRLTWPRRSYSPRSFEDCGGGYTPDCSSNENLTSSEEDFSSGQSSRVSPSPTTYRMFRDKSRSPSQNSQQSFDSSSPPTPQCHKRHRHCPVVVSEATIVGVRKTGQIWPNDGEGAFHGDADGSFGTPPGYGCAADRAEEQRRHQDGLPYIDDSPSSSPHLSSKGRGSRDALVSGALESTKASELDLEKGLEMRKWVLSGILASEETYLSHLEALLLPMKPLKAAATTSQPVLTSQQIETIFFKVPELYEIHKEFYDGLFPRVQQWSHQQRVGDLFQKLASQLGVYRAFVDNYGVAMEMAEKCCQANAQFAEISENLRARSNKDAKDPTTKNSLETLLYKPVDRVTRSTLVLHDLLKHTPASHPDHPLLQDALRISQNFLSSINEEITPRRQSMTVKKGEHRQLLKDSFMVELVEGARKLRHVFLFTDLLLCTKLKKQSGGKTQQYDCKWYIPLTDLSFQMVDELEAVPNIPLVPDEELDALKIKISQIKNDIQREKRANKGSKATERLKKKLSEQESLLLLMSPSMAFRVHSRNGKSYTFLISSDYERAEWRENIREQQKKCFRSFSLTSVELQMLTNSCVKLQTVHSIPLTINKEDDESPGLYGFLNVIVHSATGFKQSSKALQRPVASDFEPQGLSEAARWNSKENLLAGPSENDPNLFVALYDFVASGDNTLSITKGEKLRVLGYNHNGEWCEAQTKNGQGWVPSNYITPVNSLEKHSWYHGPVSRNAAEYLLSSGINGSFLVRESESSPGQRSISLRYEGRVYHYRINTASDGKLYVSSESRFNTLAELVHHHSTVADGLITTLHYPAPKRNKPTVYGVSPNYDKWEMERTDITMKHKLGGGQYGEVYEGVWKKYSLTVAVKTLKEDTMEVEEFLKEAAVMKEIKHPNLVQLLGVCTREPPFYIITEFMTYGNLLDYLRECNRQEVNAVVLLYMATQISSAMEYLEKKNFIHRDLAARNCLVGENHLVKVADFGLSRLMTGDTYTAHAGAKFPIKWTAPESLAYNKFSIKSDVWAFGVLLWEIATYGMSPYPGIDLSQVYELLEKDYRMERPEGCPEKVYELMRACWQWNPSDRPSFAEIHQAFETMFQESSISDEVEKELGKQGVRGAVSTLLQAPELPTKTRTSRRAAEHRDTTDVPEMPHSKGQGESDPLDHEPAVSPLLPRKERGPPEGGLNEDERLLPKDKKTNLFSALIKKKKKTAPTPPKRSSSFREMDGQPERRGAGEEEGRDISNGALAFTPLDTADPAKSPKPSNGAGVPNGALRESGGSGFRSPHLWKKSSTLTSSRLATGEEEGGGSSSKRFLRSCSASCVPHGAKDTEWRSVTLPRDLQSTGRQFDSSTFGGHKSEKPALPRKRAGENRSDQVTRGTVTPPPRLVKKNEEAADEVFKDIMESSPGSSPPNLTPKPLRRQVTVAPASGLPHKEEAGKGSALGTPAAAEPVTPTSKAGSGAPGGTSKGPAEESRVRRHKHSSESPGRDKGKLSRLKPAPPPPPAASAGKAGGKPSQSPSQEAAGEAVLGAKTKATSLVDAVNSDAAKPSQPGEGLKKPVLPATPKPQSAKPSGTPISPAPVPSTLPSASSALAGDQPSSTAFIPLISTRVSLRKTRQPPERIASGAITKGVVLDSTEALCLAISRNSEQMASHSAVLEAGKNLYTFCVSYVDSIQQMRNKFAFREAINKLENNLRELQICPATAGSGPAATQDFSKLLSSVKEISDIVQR
Method: Inhibition of in vitro auto-phosphorylation of p210^bcr-abl in immune-complex kinase assays were conducted as follows. K562 cell line cells were washed twice in […]. The washed cells were lysed in PLC lysis buffer 150 mM HEPES (pH 7.5), 150 mM NaCl, 10% (v/v) glycerol, 1% (v/v) Triton X-100, 1.5 mM MgCl2, 1 mM EGTA. 10 μg/ml leupeptin, 10 μg/ml aprotinin, 1 mM sodium orthovanadate. 10 mM sodium pyrophosphate, 100 mM sodium fluoride and 1 mM phenylmethyl sulfonyl fluoride| Cell lysates were centrifuged at 100,000 g for 15 minutes and the supernatant collected. Protein concentrations of the clarified supernatants were determined by the Bradford Protein Assay, and the same quantity of protein was immunoprecipitated from control (vehicle-treated) and drug-treated cells. Cell lysates were incubated and gently rocked at 4° C. for 4 hours overnight with antibodies. Immune complexes were collected by incubation with Protein A-Sepharose beads (Pharmacia, Piscataway N.J.) and immune complexes (beads) were washed three times with HNTG buffer [20 mM HEPES (pH 7.5), 10% glycerol, 0.1% Triton X-100, 150 mM NaCl and 1 mM sodium orthovanadate] to remove unbound material. Bound proteins were boiled for 5 minutes in 2×SDS sample buffer (63 mM Tris-HCl, ph 6.8; 10% glycerol; 2% SDS; 0.0025% bromophenol blue: and […] 2 mercaptoethanol) prior to SDS-PAGE. Proteins were resolved on 4-20% gradient mini gels from Novex Experimental Technology (San Diego, Calif.).
After SDS-PAGE, proteins were electrophoretically transferred onto Immobilon polyvinylidene difluoride (PVDF) membranes (Millipore, Bedford, Mass.) at 250 mA for 4 hours at 4° C. using 2× Tris glycine transfer buffer (50 mM Tris, glycine), 20% methanol and 0.1% SDS. Residual binding sites on the membrane were blocked by incubation in TTS (20 mM Tris pH 7.4, 0.9% NaCl and 0.05% Tween 20) containing 3% BSA overnight at 4° C. or for 4 hours at room temperature. Blots were incubated for 1-1.5 hours with TTS containing 0.3% BSA with 1 μg/ml of mouse anti-P-Tyr, 2 μg/ml of mouse anti-Grb2 or 1 μg/ml of rabbit anti-She antibody. Blots were washed three times for 6 minutes each with TTS containing 0.3% BSA and probed with a 1:1000 dilution of rabbit anti-mouse antibody or directly with [^125I]Protein A (Amersham, Arlington Heights, Ill.) in blocking solutions. Proteins were visualized by autoradiography (exposed for 1-2 days at −70° C.).
The p210^bcr-abl, protein immunoprecipitates were washed twice with HTNG buffer Immunoprecipitates were washed once with 50 mM Tris (pH 7.0) and distributed to each reaction in 20 μl of 20 mM PIPES [piperazine-N,N′-bis(ethanesulfonic acid)] (pH 7.0)−20 mM MnCl2. Then, 10 μl of compounds made according to the present invention at desired concentrations from working stock solution prepared in 20 mM PIPEs (pH 7.0)−20 mM MnCl2 were added to each reaction tube. Reactions were initiated with the addition of 10 μl of [γ-^33P]ATP (10 μCi per sample, 3000 Ci/mmol; Amersham), incubated for 20 minutes at 30° C., stopped by addition of 10 μl of 5×SDS sample buffer, heated at 100° C. for 5 minutes, and analyzed on 4-20% SDS-PAGE and by autoradiography.
To assess the effect of drugs added in vitro on the state of p210^bcr-abl in the immune complexes, K562 cells were labeled with ^32P, lysed in PLC buffer and immune complexes containing ^32P-labeled p210^bcr-abl were collected on protein Sepharose beads and beads were washed four times with HNTG buffer. Immune complexes were divided into several tubes in 30 μl of PLC buffer in the presence of compounds made as described herein.

[1] = test system: panel of approximately 60 different human tumor cell lines; assay: National Cancer Institute drug screen, mean-graph parameters; type: cell-based; settings: mean over cell line panel, two days exposure; for GI50: Homo sapiens, 48 h, read-out: Tumor cell Mean log GI50 (converted)
Method: Compounds of the present invention also have been subjected to the drug screening procedure employed by the National Cancer Institute for the screening of drugs having possible anticancer utility. The screening procedure uses a diverse, disease-oriented panel consisting of approximately 60 different human tumor cell lines organized into disease-specific subpanels. The compounds of the present invention were tested over a range of concentrations for cytotoxic or growth-inhibitory effects against cell lines comprising the panel. The eight subpanels represented diverse histologies (leukemias, melanomas, and tumors of the lung, colon, kidney, breast, ovary, and brain).
Compounds of the present invention were tested over a period of two days. During this period the cells were continuously exposed to various concentrations of the compounds tested. The tests produced individual dose-responses, one for each cell line (i.e. one for each example), and the data were represented in dose-response curves. The data provided by these dose response curves were summarized using a mean-graph format.
To produce data for the mean-graph format, a compound concentration that produced a target level response was calculated for each cell line. Three different response parameters were evaluated. The first response parameter was the growth inhibition (“GI50”). GI50 is the concentration of compounds made according to the present invention that produced an apparent 50% decrease in the number of tumor cells relative to the appropriate control (not exposed to the compounds of the present invention) at the end of the incubation period.
The second response parameter was the total growth inhibition (“TGI”). TGI is the concentration at which the number of tumor cells remaining at the end of the incubation period substantially equal the number of tumor cells existing at the start of the incubation period.
The third response parameter was the lethal concentration (“LC50”) LC50 is the concentration of compounds made according to the present invention that caused an apparent 50 percent reduction in the number of tumor cells […] at the start of the incubation period.
In a typical GI50 mean graph, the relative position of the vertical reference line along the horizontal concentration axis was obtained by averaging the negative log10GI50 values for all the cell lines tested against the compound. Horizontal bars were then plotted for the individual negative log10GI50 values of each cell line relative to the vertical reference line. The GI50 graph thus provided a characteristic fingerprint for the compound, displaying the individual cell lines that are proportionately more sensitive than average (bars extending to the right of the reference line) or proportionately less sensitive than average (bars extending to the left of the reference line). The length of a bar was proportional to the difference between the log10GI50 value obtained with the particular cell line and the mean (represented by the vertical reference line).
Similar mean graphs were prepared for the TGI and LC50 response parameters.

K562 cells = assay: K562 cell culture and growth assay, 6 day MTT; type: cell-based, human; settings: K562, 6 days, 4 or more experiments
Method: This example describes the procedure used for cell culture and growth assays. Human leukemia, Philadelphia-chromosome-positive CML cell line K562 was obtained from ATCC (Rockville, Md.). Cells were cultured in RPMI medium containing 10% fetal calf serum, 2 mM glutamine, 100 units/ml of penicillin and 100 μg/ml streptomycin Cells (2×10^3 cells/well) were incubated with increasing concentrations of compounds of the present invention dissolved in DMSO in a final volume of 200 μl in 96-well plates. Control cells were incubated with medium containing identical concentrations of the DMSO solvent. Growth of K562 cells was quantitated after 6 days by ability of living cells to reduce the yellow dye 3-(4,5-dimethylthiazolyl)-2,5-diphenyltetrazolium bromide (MTT) to a blue formazan product. Further information concerning this procedure is provided by Mossman T., “Rapid Colorimetric Assay for Cellular Growth and Survival—Application to Proliferation and Cytotoxicity Assays,” J. Immunol. Methods 1983, 65:55-63, which is incorporated herein by reference.

[2] = Homo sapiens, 144 h, Table 9, mean ± S.E., read-out: IC50 (μM) 6dMTT
[3] = Table 9, mean ± S.E., read-out: IC50 (μM) 6dMTT
[4] = Homo sapiens, 144 h, Table 8, mean+S.E., read-out: IC50 (μM) 6 dMTT

SMILES	IC50 (p210^bcr-abl; Table 9, mean ± S.E.) [µM]	GI50 ([1]; Table 9) [µM]	Tumor Cell Mean log TGI ([1]; Table 9)	IC50 (K562 cells; [2]) [µM]	IC50 (p210^bcr-abl; Table 8, mean+S.E.) [µM]	Tumor Cell Mean log GI50 ([1]; Table 8)	Tumor Cell Mean log TGI ([1]; Table 8)	IC50 (K562 cells; [4]) [µM]	other results
COC(=O)c1ccc(NCC2=CC(=O)C=CC2=O)cc1 [COOCH3 / H / 2,5-quinoyl]	15.9 ± 2.91	2.51	−4.8	15.1 ± 1.28	–	–	–	–	–
NC(=O)c1ccc(NCC2=CC(=O)C=CC2=O)cc1 [CONH2 / H / 2,5-quinoyl]	5.1 ± 0.3	–	−4.31	–	–	–	–	–	Tumor Cell Mean log GI50 ([1]; Table 9): −4.59; IC50 (K562 cells; [3]): 21.7 ± 2.27 µM
O=C1C=CC(=O)C(CNc2ccc(C(=O)OCc3ccccc3)cc2)=C1 [COOCH2—C6H6 / H / 2,5-quinoyl]	8.75 ± 1.25	5.01	−4.78	22.8 ± 18	–	–	–	–	–
COP(=O)(OC)c1ccc(NCc2cc(O)ccc2O)cc1 [O═P(OCH3)2 / H / H, 4′-phenylphosphonate-1-N-2,5-dihydroxybenzylamine]	–	–	–	–	0.49	−4.61	−4.23	9.83	–
CC(=O)c1ccc(NCc2cc(O)ccc2O)cc1 [Compound 17, 4′-acetophenone-1′-N-2,5-dihydroxybenzylamine]	–	–	–	–	1.03	−4.72	−4.25	13	–
O=C1C=CC(=O)C(CNc2ccc(C(=O)OC34CC5CC(CC(C5)C3)C4)cc2)=C1Br [Compound 23, 4′-adamantylbenzoate-1′-N-2-bromo-p-quinone-3-methyl amine]	2.38 ± 0.45	7.59	−4.60	24.8 ± 3.1	–	–	–	–	–
O=C(O)c1ccc(CCc2cc(O)ccc2O)cc1O	–	–	–	–	–	–	–	–	IC50 (p210^bcr-abl; Table 10, mean ± S.E.): 13 ± 1.03 µM; Tumor Cell Mean log GI50 ([1]; Table 10): −4.06; Tumor Cell Mean log TGI ([1]; Table 10): −4.01; IC50 (K562 cells; Table 10, mean ± S.E., read-out: IC50 (μM) 6dMTT): 33.4 ± 4.8 µM
CC(C)N(C(=O)c1ccc(NCc2cc(O)ccc2O)cc1)C(C)C [CON[CH(CH3)2]2 / H / H, 4′-diisopropylbenzamide-N-2,5-dihydroxybenzylamine]	–	–	–	–	2.36	−4.88	−4.36	18.2	–
COC(=O)c1ccc(NCC2=CC(=O)C=CC2=O)cc1O [Compound 20, 3′-hydroxy-4′-methylbenzoate-1′-N-p-quinone-2-methyl amine]	5.15 ± 1.01	17	−4.36	17 ± 0.3	–	–	–	–	–
NC(=O)c1ccc(NCc2cc(O)ccc2O)cc1 [CONH2 / H / H]	–	–	–	–	4.23	−4.53	−4.26	20.9	–
COC(=O)c1cc(NCc2cc(O)cc(Br)c2O)ccc1Cl [4′-chloro-5′-methylbenzoate-1′-N-3-bromo-2,5-dihydroxybenzylamine]	3.56 ± 0.53	–	−4.43	–	–	–	–	–	Tumor Cell Mean log GI50 ([1]; Table 9): −4.86; IC50 (K562 cells; [3]): 8.9 ± 0.5 µM
CC(C)OC(=O)c1ccc(NCC2=CC(=O)C=CC2=O)cc1 [Compound 21, 4′-isopropylbenzoate-1′-N-p-quinone-2-methyl amine]	13.7 ± 5.78	26.9	−4.55	17.4 ± 1	–	–	–	–	–
O=C(O)c1ccc(NCc2cc(O)ccc2O)cc1 [COOH / H / H]	–	–	–	–	18.5	−4.96	−4.60	41.9	–
CC(C)(C)OC(=O)c1ccc(NCC2=C(Br)C(=O)C=CC2=O)cc1 [Compound 24, 4′-t-butylbenzoate-1′-N-2-bromo-p-quinone-3-methyl amine]	2.68 ± 1.33	17.8	−4.31	64.8 ± 1.22	–	–	–	–	–
CC(C)(C)OC(=O)c1ccc(NCC2=CC(=O)C=CC2=O)cc1 [COOC(CH3)3 / H / 2,5-quinoyl]	25.9 ± 9.02	8.13	−4.67	25.4 ± 1.88	–	–	–	–	–
COC(=O)c1ccc(NCc2cc(O)ccc2O)cc1 [COOCH3 / H / H, reference compound]	–	–	–	–	2.9	−4.95	−4.52	–	IC50 (K562 cells; Table 8, mean+S.E., read-out: IC50 (μM) 6 dMTT): 16.6 µM
